# Reference: PMC8881512 (Nature Communications, 2022)
# Where “and” joins values, the source holds several entries; their conditions need not be identical. Identical values can stand only once.
# Key:
# LATS1 = molecular target: T1, LATS1 (Homo sapiens, UniProt O95835); experiment: In vitro LATS1 kinase inhibition assay (HTRF); type: biochemical; conditions: for IC50: 3000 μM ATP, n = 2; for LATS1 kinase activity: Fig.5b
# T1 construct: purchased Signalchem
# T1 sequence (O95835 1-1130): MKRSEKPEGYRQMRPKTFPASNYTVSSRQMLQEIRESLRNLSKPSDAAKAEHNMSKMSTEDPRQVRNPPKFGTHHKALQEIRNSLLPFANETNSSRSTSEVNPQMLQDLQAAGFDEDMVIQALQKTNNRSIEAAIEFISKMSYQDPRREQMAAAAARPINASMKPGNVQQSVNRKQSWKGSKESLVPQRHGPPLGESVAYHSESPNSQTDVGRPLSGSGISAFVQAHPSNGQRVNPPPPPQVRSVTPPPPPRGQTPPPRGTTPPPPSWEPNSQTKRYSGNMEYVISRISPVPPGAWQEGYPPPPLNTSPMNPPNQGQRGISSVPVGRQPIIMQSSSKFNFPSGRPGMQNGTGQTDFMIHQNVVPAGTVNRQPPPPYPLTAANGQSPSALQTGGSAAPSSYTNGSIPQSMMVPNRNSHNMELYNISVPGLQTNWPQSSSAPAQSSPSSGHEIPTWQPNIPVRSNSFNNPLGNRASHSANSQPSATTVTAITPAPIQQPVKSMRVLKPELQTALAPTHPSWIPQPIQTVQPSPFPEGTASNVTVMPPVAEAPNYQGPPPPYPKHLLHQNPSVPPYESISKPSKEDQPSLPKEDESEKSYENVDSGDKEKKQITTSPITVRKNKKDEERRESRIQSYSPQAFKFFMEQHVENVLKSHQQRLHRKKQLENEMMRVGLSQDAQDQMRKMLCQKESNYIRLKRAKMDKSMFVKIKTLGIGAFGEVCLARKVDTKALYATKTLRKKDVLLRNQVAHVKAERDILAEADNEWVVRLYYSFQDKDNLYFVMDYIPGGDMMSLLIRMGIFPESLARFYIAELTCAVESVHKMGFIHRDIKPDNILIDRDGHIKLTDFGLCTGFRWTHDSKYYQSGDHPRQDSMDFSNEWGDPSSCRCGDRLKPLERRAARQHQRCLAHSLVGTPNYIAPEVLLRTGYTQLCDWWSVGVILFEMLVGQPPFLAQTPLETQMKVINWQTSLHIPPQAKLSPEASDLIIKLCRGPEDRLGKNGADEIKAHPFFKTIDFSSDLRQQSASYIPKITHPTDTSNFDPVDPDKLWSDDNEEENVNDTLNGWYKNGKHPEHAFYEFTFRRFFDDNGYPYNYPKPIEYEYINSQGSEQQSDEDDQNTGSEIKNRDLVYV
# Procedure: The kinase activity of LATS1 and LATS2 were performed based on an adapted and optimised HTRF Kinase Binding assay (Cisbio). Briefly, the concentration-response curves with compound concentration range of 10,000 to 0.17 nM with 3-fold serial dilution and 1X Kinase enzymatic buffer (Cisbio), 1.2 nM LATS1 or LATS2 kinases (Signalchem), 0.5 μM biotinylation labelled YAP peptide (Vivace) were dispensed into 384-well microplates by automated digital dispenser Echo/POD with the final DMSO concentration in all wells at 0.5%. To start the enzymatic reaction, 3000 μM ATP (for LATS1) or 6000 μM ATP (for LATS2) were added using multidrop in a 10-μl volume and incubated for 90 min at 30 °C. Subsequently, 10 μl of HTRF KinEASE detection buffer (Cisbio) containing 31.25 nM acceptor conjugate (streptavidin-XL665) and 1:100 donor conjugate (TK antibody labelled with Eu^3+-Cryptate) mixture were added and incubated at RT for 60 min, and the fluorescence emission at two different wavelengths was measured (615 nm and 665 nm) on Envision. […] The inhibition was calculated by the formula, inhibition % = (HIGH − ratio) × 100/ (High − LOW). HIGH control stands for 0.5% DMSO with kinase and LOW control stands for 0.5% DMSO without kinase. The data was analysed by Xlfit software. The IC50 values were determined by fitting to a standard four-parameter logistic using GraphPad Prism.
# [1] = system: YAP target, ESR1 and ERα target gene mRNA in T47D cells; experiment: qPCR gene expression in T47D cells; type: cell-based, human; conditions: 2 µM for 2 days; for ANKRD1 mRNA (qPCR, relative to DMSO) / LATS2 mRNA (qPCR, relative to DMSO) / VGLL3 mRNA (qPCR, relative to DMSO): sheet Fig.s7c (Supplementary Fig. 7d); for ESR1 mRNA (qPCR, relative to DMSO) / GREB1 mRNA (qPCR, relative to DMSO) / TFF1 mRNA (qPCR, relative to DMSO): sheet Fig.s7e (Supplementary Fig. 7f)
# Text: PCR primer pairs included
# [2] = system: YAP/TAZ target, ESR1 and ERα target gene mRNA in BTO-02; experiment: qPCR gene expression in breast tumour organoids BTO-02; type: cell-based, human; conditions: BTO-02, 2 μM for 2 days; for ANKRD1 mRNA (qPCR, relative to DMSO) / CTGF mRNA (qPCR, relative to DMSO) / CYR61 mRNA (qPCR, relative to DMSO) / VGLL3 mRNA (qPCR, relative to DMSO): Fig.5g; for ESR1 mRNA (qPCR, relative to DMSO) / GREB1 mRNA (qPCR, relative to DMSO) / TFF1 mRNA (qPCR, relative to DMSO): Fig.5h;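 on all read-outs here: relative mRNA abundance computed by the ΔCt approach from SYBR-based real-time qPCR, with GAPDH as internal housekeeping reference for normalisation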
# MCF-7 cells = experiment: Colony-formation assay, MCF-7 (wild-type and ESR1 knock-in); type: cell-based, human; conditions: for Rel. colony (colony-formation assay): MCF-7, VT02956 (2 μM), VT02484 (2 μM) or Palbociclib (0.1 μM) alone or in combinations, Fig.6d; for Relative colony formation: 1 μM 4OHT, 0.2 μM Fulvestrant, 2 μM VT02956, 2 μM VT02484, Fig.6g
# Procedure: […] The drugs were refreshed every 2–4 days. The colonies were then fixed with 4% paraformaldehyde for 15 min and stained with 0.1% crystal violet in 20% methanol solution for quantification.
# T47D cells = experiment: Colony-formation assay, T47D (wild-type and ESR1 knock-in); type: cell-based; conditions: 1 μM 4OHT, 0.2 μM Fulvestrant, 2 μM VT02956, 2 μM VT02484, 14 days, Fig.6h
# Procedure: For colony formation, cells were plated into 12-well plate with a constant density at the start date of treatment in triplicate with the indicated compounds and further cultured for 10 days (MCF-7) or 14 days (T47D). The drugs were refreshed every 2–4 days. The colonies were then fixed with 4% paraformaldehyde for 15 min and stained with 0.1% crystal violet in 20% methanol solution for quantification.
# [3] = system: VGLL3, ESR1, YAP/TAZ target and ERα target gene mRNA in MCF-7 cells; experiment: qPCR gene expression in MCF-7 cells;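 on all read-outs here: SYBR Green real-time PCR, mRNA abundance computed by the ΔCt approach with GAPDH transcript as the internal normalisation control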; conditions: MCF-7, 2 µM for 2 days; for ANKRD1 mRNA (qPCR, relative to DMSO) / LATS2 mRNA (qPCR, relative to DMSO) / VGLL3 mRNA (qPCR, relative to DMSO): sheet Fig.s7b (Supplementary Fig. 7c); for ESR1 mRNA (qPCR, relative to DMSO) / GREB1 mRNA (qPCR, relative to DMSO) / TFF1 mRNA (qPCR, relative to DMSO): sheet Fig.s7d (Supplementary Fig. 7e)
Compound,IC50 (LATS1; in vitro) [nM],"ANKRD1 mRNA (qPCR, relative to DMSO) [1]","LATS2 mRNA (qPCR, relative to DMSO) [1]","VGLL3 mRNA (qPCR, relative to DMSO) [1]","ESR1 mRNA (qPCR, relative to DMSO) [1]","GREB1 mRNA (qPCR, relative to DMSO) [1]","TFF1 mRNA (qPCR, relative to DMSO) [1]","ANKRD1 mRNA (qPCR, relative to DMSO) [2]","CTGF mRNA (qPCR, relative to DMSO) [2]","CYR61 mRNA (qPCR, relative to DMSO) [2]","VGLL3 mRNA (qPCR, relative to DMSO) [2]","ESR1 mRNA (qPCR, relative to DMSO) [2]","GREB1 mRNA (qPCR, relative to DMSO) [2]","TFF1 mRNA (qPCR, relative to DMSO) [2]",Rel. colony (colony-formation assay) (MCF-7 cells),Relative colony formation (MCF-7 cells; MCF-7 ERa D538G knock-in),Relative colony formation (MCF-7 cells; MCF-7 ERa Y537S knock-in),Relative colony formation (MCF-7 cells; MCF-7 WT),Relative colony formation (T47D cells; T47D ERa Y537S knock-in),Relative colony formation (T47D cells; T47D WT),other results
CCN(CC)c1nc(-c2ccncc2)nc2c(-c3ccc(Cl)cc3)cccc12 [VT02484],> 10000,0.9511 and 0.8877 and 0.7788,1.062 and 1.257 and 1.047,1.036 and 0.9545 and 1.103,1.074 and 0.8288 and 1.02,1.002 and 1.049 and 0.9359,1.09 and 1.077 and 1.0923,1.2497 and 1.0358 and 0.9991,1.029 and 0.9638 and 0.9395,1.1798 and 0.914 and 0.9308,1.193 and 1.051 and 1.05,1.0519 and 1.0384 and 1.0263,1.1915 and 1.2181 and 1.0643,1.1521 and 1.0774 and 1.1271,0.94 and 1.05 and 1.08,1.12 and 1.04 and 1.03,0.96 and 0.91 and 1.03,0.96 and 0.89 and 1.02,0.96 and 0.91 and 1.03,1.12 and 0.89 and 0.98,"inhibition towards LATS (LATS1; in vitro, LATS1 and LATS2 (Fig. 5b, c)): showed no inhibition towards LATS; ANKRD1 mRNA (qPCR, relative to DMSO) [3]: 0.9375 and 1.0569 and 0.9783; LATS2 mRNA (qPCR, relative to DMSO) [3]: 1.073 and 0.8452 and 1.234; VGLL3 mRNA (qPCR, relative to DMSO) [3]: 1.127 and 1.023 and 0.9343; ESR1 mRNA (qPCR, relative to DMSO) [3]: 0.9424 and 1.008 and 0.8622; GREB1 mRNA (qPCR, relative to DMSO) [3]: 1.01 and 0.9864 and 0.9917; TFF1 mRNA (qPCR, relative to DMSO) [3]: 1.063 and 1.169 and 0.8376"
NCC1CCN(c2nc(-c3ccncc3)nc3c(C#CCO)cccc23)CC1 [VT02956],0.76,151.05 and 152.548 and 126.932,2.078 and 1.8081 and 2.057,25.7059 and 26.0713 and 24.6224,0.1433 and 0.1061 and 0.1464,0.2102 and 0.1984 and 0.2087,0.06716 and 0.07329 and 0.06992,120.896 and 131.016 and 139.426,10.8797 and 10.8657 and 10.8616,13.1424 and 13.7264 and 12.9668,31.437 and 32.235 and 31.533,0.1649 and 0.1855 and 0.1729,0.3079 and 0.3261 and 0.3014,0.0863 and 0.0862 and 0.094,0.41 and 0.36 and 0.33,0.39 and 0.37 and 0.34,0.41 and 0.42 and 0.45,0.32 and 0.27 and 0.35,0.41 and 0.42 and 0.48,0.39 and 0.48 and 0.51,"LATS1 kinase activity (LATS1; Conc. 0.00016935 (µM)): 83.5285 and 93.8174; LATS1 kinase activity (LATS1; Conc. 0.00050805 (µM)): 56.9778 and 63.1654; LATS1 kinase activity (LATS1; Conc. 0.00152416 (µM)): 31.2859 and 31.2259; LATS1 kinase activity (LATS1; Conc. 0.00457247 (µM)): 3.14 and 1.742; ANKRD1 mRNA (qPCR, relative to DMSO) [3]: 39.7272 and 41.5085 and 42.3168; LATS2 mRNA (qPCR, relative to DMSO) [3]: 3.381 and 2.554 and 3.922; VGLL3 mRNA (qPCR, relative to DMSO) [3]: 57.2973 and 54.8732 and 38.032; ESR1 mRNA (qPCR, relative to DMSO) [3]: 0.1783 and 0.1761 and 0.1829; GREB1 mRNA (qPCR, relative to DMSO) [3]: 0.3188 and 0.332 and 0.2804; TFF1 mRNA (qPCR, relative to DMSO) [3]: 0.2697 and 0.3023 and 0.214"
